These are literature values, as cited in patent publication US9597362B2, “Use of probiotic bacteria in the treatment of infection” (TEAGASC, THE AGRICULTURE AND FOOD DEVELOPMENT AUTHORITY, priority 2003, dated 2017).

Series [1] has as its system Salmonella typhimurium.
Series [2] concerns Gram-positive bacteria. Particulars: including methicillin resistant staphylococci, vancomycin resistant enterococci, penicillin resistant pneumococci.

For Lactobacillus acidophilus, the “pathogen translocation compared with control mice” value in series [1] (mice fed the probiotic prior to oral challenge) is “reduced pathogen translocation to the spleen and liver”. In addition, the survival entry in series [1] (probiotic-fed groups) was “increased survival of mice”.

Lacticin 3147: the bactericidal spectrum result in series [2] is recorded as “kills all Gram-positive bacteria tested to date”.
